Experiments:
Puccinia recondita = assay: Preventative control of brown rust on wheat caused by Puccinia recondita (Puccrt P7); format: in vivo; conditions: 250 ppm spray; wheat inoculated seven days later; untreated plants 90% infected
Description: The spray solutions were prepared in several steps: The stock solution were prepared: a mixture of acetone and/or dimethylsulfoxide and the wetting agent/emulsifier Wettol, which is based on ethoxylated alkylphenoles, in a relation (volume) solvent-emulsifier of 99 to 1 was added to 25 mg of the compound to give a total of 5 ml. Water was then added to total volume of 100 ml. This stock solution was diluted with the described solvent-emulsifier-water mixture to the given concentration. G3. Preventative Control of Brown Rust on Wheat Caused by Puccinia recondita (Puccrt P7) The first two developed leaves of pot-grown wheat seedling were sprayed to run-off with an aqueous suspension, containing the concentration of active ingredient or their mixture as described below. Seven days later the plants were inoculated with spores of Puccinia recondita. To ensure the success the artificial inoculation, the plants were transferred to a humid chamber without light and a relative humidity of 95 to 99% and 20 to 24° C. for 24 h. Then the trial plants were cultivated for 6 days in a greenhouse chamber at 20-24° C. and a relative humidity between 65 and 70%. The extent of fungal attack on the leaves was visually assessed as % diseased leaf area.

Alternaria solani = assay: Microtest: activity against early blight caused by Alternaria solani (Alteso); format: cell-based; conditions: micro titer plate, 405 nm, 7 days after inoculation, relative growth vs compound-free control (100%)
Description: Microtest The active compounds were formulated separately as a stock solution having a concentration of 10000 ppm in dimethyl sulfoxide. M1: Activity Against Early Blight Caused by Alternaria solani (Alteso) The stock solutions were mixed according to the ratio, pipetted onto a micro titer plate (MTP) and diluted with water to the stated concentrations. A spore suspension of Alternaria solani in an aqueous biomalt or yeast-bactopeptone-glycerine solution was then added. The plates were placed in a water vapor-saturated chamber at a temperature of 17° C. Using an absorption photometer, the MTPs were measured at 405 nm 7 days after the inoculation. The measured parameters were compared to the growth of the active compound-free control variant (100%) and the fungus-free and active compound-free blank value to determine the relative growth in % of the pathogens in the respective active compounds.

Botrytis cinerea [1] = assay: Long lasting control of Botrytis cinerea on leaves of green pepper (Botrci P7); format: in vivo; conditions: 63 ppm spray; green pepper inoculated 7 days later; untreated control 100
Description: The spray solutions were prepared in several steps: The stock solution were prepared: a mixture of acetone and/or dimethylsulfoxide and the wetting agent/emulsifier Wettol, which is based on ethoxylated alkylphenoles, in a relation (volume) solvent-emulsifier of 99 to 1 was added to 25 mg of the compound to give a total of 5 ml. Water was then added to total volume of 100 ml. This stock solution was diluted with the described solvent-emulsifier-water mixture to the given concentration. G4 Long Lasting Control of Botrytis cinerea on Leaves of Green Pepper (Botrci P7) Young seedlings of green pepper were grown in pots to the 4 to 5 leaf stage. These plants were sprayed to run-off with an aqueous suspension, containing the concentration of active ingredient or their mixture mentioned in the table below. The plants were then cultivated in the greenhouse for 7 days and then inoculated with a aqueous biomalt solution containig the spore suspension of Botrytis cinerea. Then the plants were immediately transferred to a humid chamber. After 5 days at 22 to 24° C. and a relative humidity close to 100% the extent of fungal attack on the leaves was visually assessed as % diseased leaf area.

Phakopsora pachyrhizi = assay: Protective control of soy bean rust on soy beans caused by Phakopsora pachyrhizi (Phakpa P2); format: in vivo; conditions: 250 ppm spray; soy bean inoculated 2 days later; untreated control 90
Description: The spray solutions were prepared in several steps:
The stock solution were prepared: a mixture of acetone and/or dimethylsulfoxide and the wetting agent/emulsifier Wettol, which is based on ethoxylated alkylphenoles, in a relation (volume) solvent-emulsifier of 99 to 1 was added to 25 mg of the compound to give a total of 5 ml. Water was then added to total volume of 100 ml. This stock solution was diluted with the described solvent-emulsifier-water mixture to the given concentration.
G3 Protective Control of Soy Bean Rust on Soy Beans Caused by Phakopsora pachyrhizi (Phakpa P2)
Leaves of pot-grown soy bean seedlings were sprayed to run-off with an aqueous suspension, containing the concentration of active ingredient or their mixture as described below. The plants were allowed to air-dry. The trial plants were cultivated for 2 days in a greenhouse chamber at 23-27° C. and a relative humidity between 60 and 80%. Then the plants were inoculated with spores of Phakopsora pachyrhizi. To ensure the success the artificial inoculation, the plants were transferred to a humid chamber with a relative humidity of about 95% and 20 to 24° C. for 24 h. The trial plants were cultivated for fourteen days in a greenhouse chamber at 23-27° C. and a relative humidity between 60 and 80%. The extent of fungal attack on the leaves was visually assessed as % diseased leaf area.

Botrytis cinerea [2] = assay: Preventative fungicidal control of Botrytis cinerea on leaves of green pepper (Botrci P1); format: in vivo; conditions: 150 ppm spray; green pepper inoculated next day; % diseased leaf area after 5 days; untreated control 100
Description: The spray solutions were prepared in several steps: The stock solution were prepared: a mixture of acetone and/or dimethylsulfoxide and the wetting agent/emulsifier Wettol, which is based on ethoxylated alkylphenoles, in a relation (volume) solvent-emulsifier of 99 to 1 was added to 25 mg of the compound to give a total of 5 ml. Water was then added to total volume of 100 ml. This stock solution was diluted with the described solvent-emulsifier-water mixture to the given concentration. G1 Preventative Fungicidal Control of Botrytis cinerea on Leaves of Green Pepper (Botrci P1) Young seedlings of green pepper were grown in pots to the 4 to 5 leaf stage. These plants were sprayed to run-off with an aqueous suspension, containing the concentration of active ingredient or their mixture mentioned in the table below. The next day the plants were inoculated with a aqueous biomalt solution containig the spore suspension of Botrytis cinerea. Then the plants were immediately transferred to a humid chamber. After 5 days at 22 to 24° C. and a relative humidity close to 100% the extent of fungal attack on the leaves was visually assessed as % diseased leaf area.

Septoria tritici [3] = assay: Preventative control of leaf blotch on wheat caused by Septoria tritici (Septtr P7); format: in vivo; conditions: 16 ppm spray, wheat inoculated seven days later
Description: The spray solutions were prepared in several steps: The stock solution were prepared: a mixture of acetone and/or dimethylsulfoxide and the wetting agent/emulsifier Wettol, which is based on ethoxylated alkylphenoles, in a relation (volume) solvent-emulsifier of 99 to 1 was added to 25 mg of the compound to give a total of 5 ml. Water was then added to total volume of 100 ml. This stock solution was diluted with the described solvent-emulsifier-water mixture to the given concentration. G2. Preventative Control of Leaf Blotch on Wheat Caused by Septoria tritici (Septtr P7) Leaves of pot-grown wheat seedling were sprayed to run-off with an aqueous suspension of the active compound or their mixture, prepared as described. The plants were allowed to air-dry. Seven days later the plants were inoculated with an aqueous spore suspension of Septoria tritici. Then the trial plants were immediately transferred to a humid chamber at 18-22° C. and a relative humidity close to 100%. After 4 days the plants were transferred to a chamber with 18-22° C. and a relative humidity close to 70%. After 4 weeks the extent of fungal attack on the leaves was visually assessed as % diseased leaf area. […]

Septoria tritici [4] = assay: Curative control of leaf blotch on wheat caused by Septoria tritici (Septtr K7); format: in vivo; conditions: 250 ppm spray seven days after inoculation (curative), untreated control 90
Description: The spray solutions were prepared in several steps: The stock solution were prepared: a mixture of acetone and/or dimethylsulfoxide and the wetting agent/emulsifier Wettol, which is based on ethoxylated alkylphenoles, in a relation (volume) solvent-emulsifier of 99 to 1 was added to 25 mg of the compound to give a total of 5 ml. Water was then added to total volume of 100 ml. This stock solution was diluted with the described solvent-emulsifier-water mixture to the given concentration. G2 Curative Control of Leaf Blotch on Wheat Caused by Septoria tritici (Septtr K7) Leaves of pot-grown wheat seedling were inoculated with an aqueous spore suspension of Septoria tritici. Then the trial plants were immediately transferred to a humid chamber at 18-22° C. and a relative humidity close to 100%. After 4 days the plants were transferred to a chamber with 18-22° C. and a relative humidity close to 70%. Seven days after inoculation the plants were sprayed to run-off with an aqueous suspension of the active compound or their mixture, prepared as described. Then the plants were transferred back to the chamber with 18-22° C. and a relative humidity close to 70%. After 4 weeks the extent of fungal attack on the leaves was visually assessed as % diseased leaf area.

Compound | infection (% diseased leaf area) Puccrt P7 (Puccinia recondita) [%] | Growth (%) at 0.008 ppm Alteso (Alternaria solani) [%] | Disease (%) at 63 ppm Botrci p7 (Botrytis cinerea [1]) [%] | Disease (%) at 250 ppm Phakpa P2 (Phakopsora pachyrhizi) [%] | Disease (%) at 150 ppm Botrci P1 (Botrytis cinerea [2]) [%] | Disease (%) at 16 ppm Septtr P7 (Septoria tritici [3]; % diseased leaf area after 4 weeks, untreated control 90) [%] | Disease (%) at 16 ppm Septtr P7 (Septoria tritici [3]; section C table) [%] | Disease (%) at 250 ppm Septtr K7 (Septoria tritici [4]) [%]
C#CCOC(Cn1cncn1)(c1ccc(Oc2ccc(Cl)cc2)cc1Cl)C(C)C (centres unmarked) [I-4, 1-[2-[2-chloro-4-(4-chlorophenoxy)phenyl]-3-methyl-2-prop-2-ynoxy-butyl]-1,2,4-triazole] | 0 | – | – | – | – | – | – | –
C#CCOC(Cn1cncn1)c1ccc(Oc2ccc(Cl)cc2)cc1Cl (centres unmarked) [DE 3801223 table 1, compound 30] | – | 48 | 80 | 70 | 60 | 60 | 60 | 40

Source: US20140243194A1, “Fungicidal substituted 1--1H-[1,2,4]triazole compounds” (BASF SE, priority 2011, published 2014)
